{"source": "ChEMBL document CHEMBL1141243", "about": "“Antioxidant and cytotoxic activities of xanthones from Cudrania tricuspidata” (Bioorg Med Chem Lett, 2005)", "key": {"[1]": {"tested_on": "Radical scavenging activity", "test": "Superoxide radical scavenging activity of Cudriana tricuspidata extracts", "format": "functional, Maclura tricuspidata"}, "[2]": {"tested_on": "Radical scavenging activity", "test": "Hydroxyl radical scavenging activity of Cudriana tricuspidata extracts", "format": "functional"}, "[3]": {"tested_on": "HT-29", "test": "Cytotoxicity against human cancer HT29 cell line by MTT assay", "format": "functional", "conditions": "read-out: LD50 (the source's name)"}, "[4]": {"tested_on": "HL-60", "test": "Cytotoxicity against human cancer HL60 cell line by MTT assay", "format": "functional", "conditions": "read-out: LD50 (the source's name)"}, "[5]": {"tested_on": "SK-OV-3", "test": "Cytotoxicity against human cancer SKOV3 cell line by MTT assay", "format": "functional", "conditions": "read-out: LD50 (the source's name)"}, "[6]": {"tested_on": "AGS", "test": "Cytotoxicity against human cancer AGS cell line by MTT assay", "format": "functional", "conditions": "read-out: LD50 (the source's name)"}, "[7]": {"tested_on": "A549", "test": "Cytotoxicity against human cancer A549 cell line by MTT assay", "format": "functional", "conditions": "read-out: LD50 (the source's name)"}, "[8]": {"tested_on": "Radical scavenging activity", "test": "DPPH radical scavenging activity of Cudriana tricuspidata extracts", "format": "functional, Maclura tricuspidata"}, "[9]": {"tested_on": "HL-60", "test": "Cytotoxic activity in HL60 by DNA fragmentation assay", "format": "functional, cell-based", "conditions": "Homo sapiens"}}, "note": "The source made the active and inactive calls. The calls are words filed in the database; no cut-off is given here."}
{"smiles": "C=CC(C)(C)c1c(O)cc(O)c2c(=O)c3cc(O)c4c(c3oc12)C=CC(C)(C)O4", "values": [{"measurement": "IC50", "setting": "[1]", "result": 64.5, "unit": "µM"}, {"measurement": "IC50", "setting": "[2]", "result": 55.5, "unit": "µM"}, {"measurement": "CC50", "setting": "[3]", "result": 46.3, "unit": "µM"}, {"measurement": "CC50", "setting": "[4]", "result": 35.9, "unit": "µM"}, {"measurement": "CC50", "setting": "[5]", "result": 70.4, "unit": "µM"}, {"measurement": "CC50", "setting": "[6]", "result": 44.7, "unit": "µM"}, {"measurement": "CC50", "setting": "[7]", "result": 61.9, "unit": "µM"}, {"measurement": "IC50", "setting": "[8]", "result": "> 200", "unit": "µM"}, {"measurement": "Activity", "setting": "[9]", "result": "Active"}]}
{"smiles": "C=CC(C)(C)c1c(O)cc(O)c2c(=O)c3c(CC=C(C)C)c(O)c(O)cc3oc12", "note": "[CUDRATRICUSXANTHONE A]", "values": [{"measurement": "IC50", "setting": "[1]", "result": 51, "unit": "µM"}, {"measurement": "IC50", "setting": "[2]", "result": 21.2, "unit": "µM"}, {"measurement": "CC50", "setting": "[3]", "result": 41.4, "unit": "µM"}, {"measurement": "CC50", "setting": "[4]", "result": 32.8, "unit": "µM"}, {"measurement": "CC50", "setting": "[5]", "result": 43.2, "unit": "µM"}, {"measurement": "CC50", "setting": "[6]", "result": 32.8, "unit": "µM"}, {"measurement": "CC50", "setting": "[7]", "result": 45.8, "unit": "µM"}, {"measurement": "IC50", "setting": "[8]", "result": 21.3, "unit": "µM"}, {"measurement": "Activity", "setting": "[9]", "result": "Active"}]}
{"smiles": "C=CC(C)(C)c1c(O)cc(O)c2c(=O)c3c(CC=C(C)C)c(OC)c(O)cc3oc12", "note": "[CUDRAXANTHONE C]", "values": [{"measurement": "IC50", "setting": "[1]", "result": 85.1, "unit": "µM"}, {"measurement": "IC50", "setting": "[2]", "result": 24.3, "unit": "µM"}, {"measurement": "CC50", "setting": "[3]", "result": 50.7, "unit": "µM"}, {"measurement": "CC50", "setting": "[4]", "result": 40.8, "unit": "µM"}, {"measurement": "CC50", "setting": "[5]", "result": 73.5, "unit": "µM"}, {"measurement": "CC50", "setting": "[6]", "result": 49.5, "unit": "µM"}, {"measurement": "CC50", "setting": "[7]", "result": 61.7, "unit": "µM"}, {"measurement": "IC50", "setting": "[8]", "result": "> 200", "unit": "µM"}, {"measurement": "Activity", "setting": "[9]", "result": "Active"}]}
{"smiles": "C=CC(C)(C)c1c(OC)cc(O)c2c(=O)c3c(CC=C(C)C)c(O)c(O)cc3oc12", "note": "[CUDRAXANTHONE D]", "values": [{"measurement": "IC50", "setting": "[1]", "result": 92.8, "unit": "µM"}, {"measurement": "IC50", "setting": "[2]", "result": 25.2, "unit": "µM"}, {"measurement": "CC50", "setting": "[3]", "result": 20.7, "unit": "µM"}, {"measurement": "CC50", "setting": "[4]", "result": 6.2, "unit": "µM"}, {"measurement": "CC50", "setting": "[5]", "result": 23.8, "unit": "µM"}, {"measurement": "CC50", "setting": "[6]", "result": 4.7, "unit": "µM"}, {"measurement": "CC50", "setting": "[7]", "result": 16.3, "unit": "µM"}, {"measurement": "IC50", "setting": "[8]", "result": 17.4, "unit": "µM"}, {"measurement": "Activity", "setting": "[9]", "result": "Active"}]}
{"smiles": "C=CC(C)(C)c1c(O)cc2oc3c(CC=C(C)C)c(O)c(O)cc3c(=O)c2c1O", "note": "[CUDRAXANTHONE L]", "values": [{"measurement": "IC50", "setting": "[1]", "result": 23.6, "unit": "µM"}, {"measurement": "IC50", "setting": "[2]", "result": 50.3, "unit": "µM"}, {"measurement": "CC50", "setting": "[3]", "result": 11.4, "unit": "µM"}, {"measurement": "CC50", "setting": "[4]", "result": 8.6, "unit": "µM"}, {"measurement": "CC50", "setting": "[5]", "result": 38, "unit": "µM"}, {"measurement": "CC50", "setting": "[6]", "result": 3.9, "unit": "µM"}, {"measurement": "CC50", "setting": "[7]", "result": 33.5, "unit": "µM"}, {"measurement": "IC50", "setting": "[8]", "result": 13.7, "unit": "µM"}, {"measurement": "Activity", "setting": "[9]", "result": "Active"}]}
{"smiles": "CC(C)=CCc1c(O)c(O)cc2c(=O)c3c(O)c4c(cc3oc12)OC(C)C4(C)C", "note": "(stereo not given) [CUDRAXANTHONE M]", "values": [{"measurement": "IC50", "setting": "[1]", "result": 26, "unit": "µM"}, {"measurement": "IC50", "setting": "[2]", "result": 42.6, "unit": "µM"}, {"measurement": "CC50", "setting": "[3]", "result": 12.1, "unit": "µM"}, {"measurement": "CC50", "setting": "[4]", "result": 8.2, "unit": "µM"}, {"measurement": "CC50", "setting": "[5]", "result": 14.6, "unit": "µM"}, {"measurement": "CC50", "setting": "[6]", "result": 4.1, "unit": "µM"}, {"measurement": "CC50", "setting": "[7]", "result": 11.8, "unit": "µM"}, {"measurement": "IC50", "setting": "[8]", "result": 10.4, "unit": "µM"}, {"measurement": "Activity", "setting": "[9]", "result": "Active"}]}
{"smiles": "COc1cccc2c1C(=O)c1c(O)c3c(c(O)c1C2=O)C[C@@](O)(C(=O)CO)C[C@@H]3O[C@H]1C[C@H](N)[C@H](O)[C@H](C)O1", "note": "[DOXORUBICIN]", "values": [{"measurement": "CC50", "setting": "[3]", "result": 1.8, "unit": "µM"}, {"measurement": "CC50", "setting": "[4]", "result": 1.1, "unit": "µM"}, {"measurement": "CC50", "setting": "[5]", "result": 14.2, "unit": "µM"}, {"measurement": "CC50", "setting": "[6]", "result": 1.2, "unit": "µM"}, {"measurement": "CC50", "setting": "[7]", "result": 1.3, "unit": "µM"}]}
{"smiles": "C=CC(C)(C)c1c(OC)cc(O)c2c(=O)c3ccc(O)c(O)c3oc12", "note": "[ISOCUDRANIAXANTHONE B]", "values": [{"measurement": "IC50", "setting": "[1]", "result": 29.5, "unit": "µM"}, {"measurement": "IC50", "setting": "[2]", "result": 101, "unit": "µM"}, {"measurement": "CC50", "setting": "[3]", "result": 65, "unit": "µM"}, {"measurement": "CC50", "setting": "[4]", "result": 45.2, "unit": "µM"}, {"measurement": "CC50", "setting": "[5]", "result": 71.3, "unit": "µM"}, {"measurement": "CC50", "setting": "[6]", "result": 43.9, "unit": "µM"}, {"measurement": "CC50", "setting": "[7]", "result": 57.8, "unit": "µM"}, {"measurement": "IC50", "setting": "[8]", "result": 31.8, "unit": "µM"}, {"measurement": "Activity", "setting": "[9]", "result": "Active"}]}
{"smiles": "C=CC(C)(C)c1c(O)c(CC=C(C)C)c2oc3cc(O)c(O)cc3c(=O)c2c1O", "note": "[MACLURAXANTHONE B]", "values": [{"measurement": "IC50", "setting": "[1]", "result": 47.8, "unit": "µM"}, {"measurement": "IC50", "setting": "[2]", "result": 74.1, "unit": "µM"}, {"measurement": "CC50", "setting": "[3]", "result": 28, "unit": "µM"}, {"measurement": "CC50", "setting": "[4]", "result": 29.5, "unit": "µM"}, {"measurement": "CC50", "setting": "[5]", "result": 23.1, "unit": "µM"}, {"measurement": "CC50", "setting": "[6]", "result": 15.2, "unit": "µM"}, {"measurement": "CC50", "setting": "[7]", "result": 25.8, "unit": "µM"}, {"measurement": "IC50", "setting": "[8]", "result": 15.4, "unit": "µM"}, {"measurement": "Activity", "setting": "[9]", "result": "Active"}]}
{"smiles": "Cc1c(C)c2c(c(C)c1O)CCC(C)(C(=O)O)O2", "note": "(stereo not given) [TROLOX]", "values": [{"measurement": "IC50", "setting": "[1]", "result": 33.6, "unit": "µM"}, {"measurement": "IC50", "setting": "[2]", "result": 48.2, "unit": "µM"}, {"measurement": "IC50", "setting": "[8]", "result": 10.6, "unit": "µM"}]}
